The values below come from patent US20120202701A1, “AN ANTIBODY-GLYCAN COMPLEX TARGETING THE DISIALYL CORE II AND SIALYL LEWIS X STRUCTURES, AND USES THEREOF INVOLVING ANALYSIS OF STEM CELLS OR CANCER CELLS” (GLYKOS FINLAND OY, priority 2009, published 2012).

One assay relates to mAb CHO-131. The experiment in a line: Glycan microarray analysis (Consortium for Functional Glycomics, printed array version 4.0), glycan binding of mAb CHO-131. The note with it: for RFU: mAb CHO-131 at 50 μg/ml, average RFU of 6 replicates after removal of highest and lowest values; for binding to CHO-131 antibody, in words: glycan microarray, as described. The protocol: (§1) mAb CHO-131 was purchased from R&D Systems (MAB996). mAb CSLEX was purchased form BD Biosciences (551344). Glycan microarray analysis was carried out by the Consortium for Functional Glycomics. Glycan microarrays were printed as described (Blixt 2004). Version 4.0 of the printed glycan array was used for analysis. Binding analysis was performed at 50 μg/ml of antibody. Data are reported as average RFU of 6 replicates after removal of highest and lowest values.

A further assay has as its system mAb CSLEX. In words: Glycan microarray analysis (Consortium for Functional Glycomics, printed array version 4.0), glycan binding of mAb CSLEX. The note with it: mAb CSLEX at 50 μg/ml; average RFU of 6 replicates after removal of highest and lowest values. The protocol:
as §1

For `CC(=O)NC1C(OCCCN)OC(CO)C(OC2OC(COS(=O)(=O)O)C(O)C(OC3(C(=O)O)CC(O)C(NC(C)=O)C(C(O)C(O)CO)O3)C2O)C1O` (centres unmarked) [compound 43], the RFU is 22706 RFU in the assay on mAb CHO-131 and 12653 RFU in the assay with mAb CSLEX.

In the case of `CC(=O)NC1C(O)CC(OC2C(O)C(COS(=O)(=O)O)OC(OC3C(CO)OC(OCCCN)C(NC(C)=O)C3OC3OC(C)C(O)C(O)C3O)C2O)(C(=O)O)OC1C(O)C(O)CO` (centres unmarked) [compound 220], the RFU with mAb CHO-131 came out at 36255 RFU; in the assay with mAb CSLEX, 22795 RFU.

With `CC(=O)NC1C(O)CC(OC2C(O)C(CO)OC(OC3C(CO)OC(OC4C(O)C(CO)OC(OC5C(CO)OC(OC6C(O)C(CO)OC(OC7C(CO)OC(OCCN)C(NC(C)=O)C7OC7OC(C)C(O)C(O)C7O)C6O)C(NC(C)=O)C5OC5OC(C)C(O)C(O)C5O)C4O)C(NC(C)=O)C3OC3OC(C)C(O)C(O)C3O)C2O)(C(=O)O)OC1C(O)C(O)CO` (centres unmarked) [compound 242], the RFU with mAb CHO-131 stood at 29505 RFU; in the assay with mAb CSLEX, 31104 RFU.

For the compound `CC(=O)NC1C(O)CC(OC2C(O)C(CO)OC(OC3C(CO)OC(OCCN)C(NC(C)=O)C3OC3OC(C)C(O)C(O)C3O)C2O)(C(=O)O)OC1C(O)C(O)CO` (centres unmarked) [compound 243], in the assay on mAb CHO-131, the “binding to CHO-131 antibody, in words” value was “somewhat weaker binding” and the RFU amounted to 20068 RFU. The same compound gave an RFU with mAb CSLEX of 13988 RFU.

With `CC(=O)NC1C(O)CC(OC2C(O)C(CO)OC(OC3C(CO)OC(OCCCN)C(NC(C)=O)C3OC3OC(C)C(O)C(O)C3O)C2O)(C(=O)O)OC1C(O)C(O)CO` (centres unmarked) [compound 244], in the assay on mAb CHO-131, the “binding to CHO-131 antibody, in words” value was “ligand for the antibody” and the RFU amounted to 34336 RFU. The compound further returned an RFU with mAb CSLEX of 19491 RFU.

As to `CC(=O)NC1C(O)CC(OC2C(O)C(CO)OC(OC3C(CO)OC(OC4C(O)C(CO)OC(OCCCN)C4O)C(NC(C)=O)C3OC3OC(C)C(O)C(O)C3O)C2O)(C(=O)O)OC1C(O)C(O)CO` (centres unmarked) [compound 245], in the assay on mAb CHO-131, the “binding to CHO-131 antibody, in words” value was “third best ligand structure” and the RFU worked out at 33335 RFU. The compound also had an RFU with mAb CSLEX of 22997 RFU.

Take `CC(=O)NC1C(OCCCN)OC(CO)C(OC2OC(CO)C(O)C(OC3OC(CO)C(OC4OC(CO)C(O)C(OC5(C(=O)O)CC(O)C(NC(C)=O)C(C(O)C(O)CO)O5)C4O)C(OC4OC(C)C(O)C(O)C4O)C3NC(C)=O)C2O)C1O` (centres unmarked) [compound 246]: the RFU with mAb CHO-131 is reported as 24587 RFU; with mAb CSLEX it was 27193 RFU.

As to `CC(=O)NC1C(OCCN)OC(CO)C(OC2OC(CO)C(O)C(OC3(C(=O)O)CC(O)C(NC(=O)CO)C(C(O)C(O)CO)O3)C2O)C1OC1OC(C)C(O)C(O)C1O` (centres unmarked) [compound 271], the values for the RFU in the assay on mAb CHO-131 and in the assay on mAb CSLEX were 9521 RFU and 4766 RFU, respectively.

As to `CC(=O)N[C@H]1[C@H](OCCN)O[C@H](COS(=O)(=O)O)[C@@H](O[C@@H]2O[C@H](COS(=O)(=O)O)[C@H](O)[C@H](O)[C@H]2O)[C@@H]1O` [compound 287], the RFU in the assay with mAb CHO-131 is recorded as 1306 RFU; in the assay with mAb CSLEX it was 29 RFU.

`CC(=O)N[C@H]1[C@H](OCCCN)O[C@H](CO)[C@@H](O[C@@H]2O[C@H](CO)[C@H](O)[C@H](O[C@@H]3O[C@H](CO)[C@H](O)[C@H](O)[C@H]3O)[C@H]2O)[C@@H]1O` [compound 291]: in the assay on mAb CSLEX, the RFU is 46 RFU.

The compound `CC(=O)N[C@H]1[C@H](OCCN)O[C@H](CO)[C@@H](O[C@@H]2O[C@H](CO[C@H]3O[C@H](CO)[C@@H](O[C@@H]4O[C@H](CO)[C@H](O)[C@H](O)[C@H]4O)[C@H](O)[C@H]3NC(C)=O)[C@H](O)[C@H](O)[C@H]2O)[C@@H]1O` [compound 295] yielded an RFU with mAb CSLEX of 30 RFU.

For the compound `CC(=O)NC1C(OCCCN)OC(CO)C(O)C1OC1OC(C(=O)O)C(O)C(O)C1O` (centres unmarked) [compound 299], the values for the RFU in the assay on mAb CHO-131 and with mAb CSLEX were 5434 RFU and 39 RFU, respectively.

As to `CC(=O)NC1C(O)CC(OC2C(O)C(CO)OC(OC3C(NC(C)=O)C(OC4C(O)C(CO)OC(OC5C(NC(C)=O)C(OCCN)OC(CO)C5OC5OC(C)C(O)C(O)C5O)C4O)OC(CO)C3OC3OC(C)C(O)C(O)C3O)C2O)(C(=O)O)OC1C(O)C(O)CO` (centres unmarked) [compound 326], the RFU in the assay on mAb CSLEX is listed as 42 RFU.

As for `CC(=O)N[C@H]1[C@H](O[C@H]2[C@@H](O)[C@@H](CO)O[C@@H](O[C@H]3[C@H](O[C@@H]4O[C@@H](C)[C@@H](O)[C@@H](O)[C@@H]4O)[C@@H](NC(C)=O)[C@H](O[C@H]4[C@@H](O)[C@@H](CO)O[C@@H](O[C@H]5[C@H](O[C@@H]6O[C@@H](C)[C@@H](O)[C@@H](O)[C@@H]6O)[C@@H](NC(C)=O)[C@H](OCCN)O[C@@H]5CO)[C@@H]4O)O[C@@H]3CO)[C@@H]2O)O[C@H](CO)[C@@H](O[C@@H]2O[C@H](CO)[C@H](O[C@H]3O[C@H](CO)[C@@H](O)[C@H](O)[C@H]3NC(C)=O)[C@H](O)[C@H]2O)[C@@H]1O` [compound 337], in the assay on mAb CHO-131, the “binding to CHO-131 antibody, in words” value is on record as “some binding” and the RFU was found to be 706 RFU. The same compound gave an RFU with mAb CSLEX of 41 RFU.
